Experiments:
[1] = tested on: HDF3CGF: Dermal fibroblasts; assay: BioMAP HDF3CGF system; format: cell-based, human; conditions: at the compound's active concentration
Text: (§1) The Diversity PLUS panel allows test agent characterization in an unbiased way across a broad set of systems modeling various human disease states. These systems are designed to model complex human tissue and disease biology of the vasculature, skin, lung, and inflammatory tissues. Quantitative measurements of 148 biomarker activities across this broad panel, along with comparative analysis of biological activities from known bioactive agents, were used to predict and compare the efficacy and function of each selected compound at selected concentrations (6.7 and/or 20 μM).
(§2) BioMAP systems are constructed with one or more primary cell types from healthy human donors, with stimuli (such as cytokines or growth factors) added to capture relevant signaling networks that naturally occur in human tissue or pathological conditions. Vascular biology is modeled in both a Th1 (3C system) and a Th2 (4H system) inflammatory environment, as well as in a Th1 inflammatory state specific to arterial smooth muscle cells (CASM3C system). Additional systems recapitulate aspects of the systemic immune response including monocyte-driven Th1 inflammation (LPS system) or T cell stimulation (SAg system), chronic Th1 inflammation driven by macrophage activation (lMphg system) and the T cell-dependent activation of B cells that occurs in germinal centers (BT system). The BE3C system (Th1) and the BF4T system (Th2) represent airway inflammation of the lung, while the MyoF system models myofibroblast-lung tissue remodeling. Lastly, skin biology is addressed in the KF3CT system modeling Th1 cutaneous inflammation and the HDF3CGF system modeling wound healing.
Each test agent generates a signature BioMAP profile that is created from the changes in protein biomarker readouts within individual system environments. Biomarker readouts (7-17 per system) are selected for therapeutic and biological relevance, are predictive for disease outcomes or specific drug effects and are validated using agents with known mechanism of action (MoA). Each readout is measured quantitatively by immune-based methods that detect protein (e.g., ELISA) or functional assays that measure proliferation and viability. BioMAP readouts are diverse and include cell surface receptors, cytokines, chemokines, matrix molecules and enzymes. In total, the Diversity PLUS panel contains 148 biomarker readouts that capture biological changes that occur within the physiological context of the particular BioMAP system. Specific BioMAP activities have been correlated to in vivo biology, and multiparameter BioMAP profiles have been used to distinguish compounds based on MoA and target selectivity across diverse physiological systems.
(§3) Activated BioMAP systems were incubated with each compound for 24 to 72 hours. Protein-based biomarkers from activated cell systems were measured and compared with non-treated control systems.

[2] = tested on: KF3CT: Keratinocytes, dermal fibroblasts; assay: BioMAP KF3CT system; format: cell-based, human; conditions: at the compound's active concentration
Text: as §1, with “μM). […]” for “μM).”
(§4) Each test agent generates a signature BioMAP profile that is created from the changes in protein biomarker readouts within individual system environments. Biomarker readouts (7-17 per system) are selected for therapeutic and biological relevance, are predictive for disease outcomes or specific drug effects and are validated using agents with known mechanism of action (MoA). Each readout is measured quantitatively by immune-based methods that detect protein (e.g., ELISA) or functional assays that measure proliferation and viability. BioMAP readouts are diverse and include cell surface receptors, cytokines, chemokines, matrix molecules and enzymes. […]

[3] = tested on: BE3C: Bronchial epithelial cells (IL-1β, IFNγ, TNFα); assay: BioMAP BE3C system; format: cell-based, human; conditions: at the compound's active concentration
Text: The Diversity PLUS panel allows test agent characterization in an unbiased way across a broad set of systems modeling various human disease states. These systems are designed to model complex human tissue and disease biology of the vasculature, skin, lung, and inflammatory tissues.
as §2
(§5) Each test agent generates a signature BioMAP profile that is created from the changes in protein biomarker readouts within individual system environments. Biomarker readouts (7-17 per system) are selected for therapeutic and biological relevance, are predictive for disease outcomes or specific drug effects and are validated using agents with known mechanism of action (MoA). Each readout is measured quantitatively by immune-based methods that detect protein (e.g., ELISA) or functional assays that measure proliferation and viability. BioMAP readouts are diverse and include cell surface receptors, cytokines, chemokines, matrix molecules and enzymes.
as §3

[4] = tested on: human primary cell-based systems; assay: BioMAP Diversity PLUS panel, phenotypic profiling; conditions: tested at 6.7 and/or 20 μM; 24 to 72 hours
Description: (§6) Anti-inflammatory phenotypic profiling was conducted across 12 human primary cell-based systems as part of DiscoverX's BioMAP Diversity Plus program. These systems are designed to model complex human tissue and disease biology of the vasculature, skin, lung, and inflammatory tissues. Quantitative measurements of biomarker activities across this broad panel were used to assess each biochemical's anti-inflammatory activity at four concentrations ([…] and 2.2, 6.7 and 20 μM). […] Protein-based biomarkers from activated cell systems were measured and compared with controls.
as §1, §2
as §5, with “enzymes. In total, the Diversity PLUS panel contains 148 biomarker readouts that capture biological changes that occur within the physiological context of the particular BioMAP system.” for “enzymes.”
as §3

[5] = tested on: BT: Peripheral blood mononuclear cells, B cells (α-IgM, TCR ligands); assay: BioMAP BT system; format: cell-based, human; conditions: BT system; at the compound's active concentration
Description: as §6, with “controls. Biomarker activities were annotated when 2 or more consecutive concentrations change in the same directions relative to vehicle controls, were outside of the significance envelope and had at least one concentration with an effect size>20% (log 10 ratio)>0.1.” for “controls.”
In the first system, human primary peripheral blood mononuclear cells and venular endothelial cells were stimulated with lipopolysaccharide (LPS) and incubated with the test agent, drug control, or vehicle control for 24 hours. In the second system, peripheral blood mononuclear cells and B cells were stimulated with α-IgM and T cell receptor ligands and incubated with the test agent, drug control, or vehicle control for 24 hours. In both systems, a negative, non-stimulated system was also included.
as §1, §2
as §4, with “enzymes. In total, the Diversity PLUS panel contains 148 biomarker readouts that capture biological changes that occur within the physiological context of the particular BioMAP system.” for “enzymes.”

[6] = tested on: MyoF: Lung fibroblasts (TGFβ, TNFα); assay: BioMAP MyoF system; format: cell-based, human; conditions: at the compound's active concentration
Text: as §1, §2
as §4, with “enzymes. In total, the Diversity PLUS panel contains 148 biomarker readouts that capture biological changes that occur within the physiological context of the particular BioMAP system.” for “enzymes.”
as §3

[7] = tested on: SAg: Venular endothelial cells, peripheral blood mononuclear cells (TCR ligands); assay: BioMAP SAg system; format: cell-based, human
Description: as §6, with “controls. Biomarker activities were annotated when 2 or more consecutive concentrations change in the same directions relative to vehicle controls, were outside of the significance envelope and had at least one concentration with an effect size>20% (log 10 ratio)>0.1.” for “controls.”
In this system, human primary peripheral blood mononuclear cells and human umbilical vein endothelial cells were stimulated with T-cell receptor ligands and incubated with the test agent, drug control, or vehicle control for 24 hours. A negative, non-stimulated system was also included. […] This antiproliferative activity was lost at higher concentrations (20 μM). In this system, T cell proliferation is considered a critical event driving an inflammatory response.
as §1, with “μM). […]” for “μM).”
as §4, with “enzymes. In total, the Diversity PLUS panel contains 148 biomarker readouts that capture biological changes that occur within the physiological context of the particular BioMAP system.” for “enzymes.”

[8] = white powder; cited from earlier work

Structure (SMILES): Nc1ncnc2c1ncn2[C@@H]1O[C@H](CSCC[C@H](N)C(=O)O)[C@@H](O)[C@H]1O [S-adenosylhomocysteine (SAH), S-adenosylhomocysteine]
- CXCL10, log10 reduction vs nontreated controls [1]: −0.19 log10
- CXCL11, log10 reduction vs nontreated controls [1]: −0.25 log10
- Collagen III, log10 reduction vs nontreated controls [1]: −0.21 log10
- Fibroblast proliferation, log10 reduction vs nontreated controls [1]: −1.10 log10
- M-CSF, log10 reduction vs nontreated controls [1]: −0.19 log10
- MCP-1, log10 reduction vs nontreated controls [1]: −0.14 log10
- TIMP-1, log10 reduction vs nontreated controls [1]: −0.14 log10
- VCAM-1, log10 reduction vs nontreated controls [1]: −0.17 log10
- MMP-9, log10 reduction vs nontreated controls [2]: −0.10 log10
- PAI-1, log10 reduction vs nontreated controls [2]: −0.28 log10
- CXCL11, log10 reduction vs nontreated controls [3]: −0.13 log10
- HLA-DR, log10 reduction vs nontreated controls [3]: −0.13 log10
- IL-8, log10 reduction vs nontreated controls [3]: −0.13 log10
- MMP-9, log10 reduction vs nontreated controls [3]: −0.24 log10
- Active concentrations [4]: 20 µM
- Secreted IgG, log10 reduction vs nontreated controls [5]: −0.29 log10
- Alpha-SM actin, log10 reduction vs nontreated controls [6]: −0.18 log10
- Collagen I, log10 reduction vs nontreated controls [6]: −0.15 log10
- Collagen III, log10 reduction vs nontreated controls [6]: −0.27 log10
- VCAM-1, log10 reduction vs nontreated controls [6]: −0.12 log10
- T cell proliferation, log10 reduction vs nontreated controls ([7]; SAg system, at the compound's active concentration): −0.21 log10

Structure (SMILES): N[C@@H](CC(O)C(=O)O)C(=O)O (some centres unmarked) [4-hydroxyglutamate]
- T cell antiproliferative activity ([7]; higher concentrations (20 μM), 24 hours): lost
- Stability of the pure powder [8]: stable at room temperature
